Measurements taken from patent US20200345011A1, “METHOD OF […] GROWTH IN SOIL” (CH2O Incorporated, priority 2008, published 2020).

Legend:
[1] = Crop yield and fruit quality from treated soils; type: in vivo
Description: Water (27.5%), PBTC (17.5%) and hydrochloric acid (HCl) (55%) were admixed to form a first solution. Water (85%) and sodium chlorite (15%) were admixed to form a second solution. The first and second solutions were combined to form a combined solution. Sufficient contact time was allowed in the mixing vessel 12 to convert a substantial portion of the sodium chlorite solution into chlorine dioxide. The combined solution can also be referred to as chlorine dioxide. For test purposes, five soil beds were prepared. These beds were covered with sheet plastic. […] […] […] […] The fifth soil bed was treated with methyl-bromide at E.P.A. label recommended dose rates.

[2] = system: weed and undesirable plant growth; test: Weed growth suspension in treated, plastic-covered soil beds; type: in vivo; conditions: after six days of treatment
Description: (§1) Water (27.5%), PBTC (17.5%) and hydrochloric acid (HCl) (55%) were admixed to form a first solution. Water (85%) and sodium chlorite (15%) were admixed to form a second solution. The first and second solutions were combined to form a combined solution. Sufficient contact time was allowed in the mixing vessel 12 to convert a substantial portion of the sodium chlorite solution into chlorine dioxide. The combined solution can also be referred to as chlorine dioxide. For test purposes, five soil beds were prepared. These beds were covered with sheet plastic. In the first bed, 150 ppm of chlorine dioxide was added irrigation water and the mixture was introduced to the soil bed until the soil bed was saturated. In the second soil bed, 350 ppm of chlorine dioxide was added to irrigation water and the mixture was introduced into the second soil bed until the second soil bed was saturated. The third soil bed received 750 ppm of chlorine dioxide in irrigation water until that bed was saturated. The fourth soil bed received a mixture of 950 ppm of chlorine dioxide in irrigation water until that soil bed was saturated. The fifth soil bed was treated with methyl-bromide at E.P.A. label recommended dose rates.

[3] = Decomposition in soil and consequences to the environment; conditions: soil bed treatment
Description: as §1

[4] = soil treated with methyl bromide, used as at EPA label requirements

Row | SMILES | Crates/Acres [1, 4] | Fruit Grams [1, 4] | Marketable Crates/Acre [1, 4] | Effectiveness as a fumigant ([2]; E.P.A. label recommended dose rates) | Consequences to the environment [3] | Crates/Acres ([1]; 75 ppm solution) | Fruit Grams ([1]; 75 ppm solution) | Marketable Crates/Acre ([1]; 75 ppm solution) | Crates/Acres ([1]; 175 ppm solution) | Fruit Grams ([1]; 175 ppm solution) | Marketable Crates/Acre ([1]; 175 ppm solution) | Crates/Acres ([1]; 375 ppm solution) | Fruit Grams ([1]; 375 ppm solution) | Marketable Crates/Acre ([1]; 375 ppm solution) | Crates/Acres ([1]; 475 ppm solution) | Fruit Grams ([1]; 475 ppm solution) | Marketable Crates/Acre ([1]; 475 ppm solution) | Yield performance of treated soils versus methyl bromide treated soils ([1]; comparison in words) | Yield at the higher chlorine dioxide levels ([1]; higher versus lower chlorine dioxide levels, in words) | Suspension of weed and undesirable plant growth ([2]; all four dosages (150, 350, 750, 950 ppm in irrigation water, bed saturated))
1 | CBr [Methyl Bromide, Methyl-bromide, reference compound] | 455 Crates/Acres | 32.8 Grams | 428 Crates/Acre | effective as a fumigant | had an adverse effect on the environment | – | – | – | – | – | – | – | – | – | – | – | – | – | – | –
2 | [O][Cl+][O-] [Chlorine Dioxide, chlorine dioxide] | – | – | – | – | without any negative consequences to the environment | 495 Crates/Acres | 25.5 Grams | 431 Crates/Acre | 483 Crates/Acres | 26.6 Grams | 435 Crates/Acre | 429 Crates/Acres | 27.1 Grams | 572 Crates/Acre | 651 Crates/Acres | 28.9 Grams | 605 Crates/Acre | exceeded the methyl bromide treated soils | greater yields | suspend weed and undesirable plant growth entirely
